Test [1] has as its target T1, 3-hydroxy-3-methylglutaryl-coenzyme A reductase (Rattus norvegicus, UniProt P51639).
T1 sequence (P51639 whole entry): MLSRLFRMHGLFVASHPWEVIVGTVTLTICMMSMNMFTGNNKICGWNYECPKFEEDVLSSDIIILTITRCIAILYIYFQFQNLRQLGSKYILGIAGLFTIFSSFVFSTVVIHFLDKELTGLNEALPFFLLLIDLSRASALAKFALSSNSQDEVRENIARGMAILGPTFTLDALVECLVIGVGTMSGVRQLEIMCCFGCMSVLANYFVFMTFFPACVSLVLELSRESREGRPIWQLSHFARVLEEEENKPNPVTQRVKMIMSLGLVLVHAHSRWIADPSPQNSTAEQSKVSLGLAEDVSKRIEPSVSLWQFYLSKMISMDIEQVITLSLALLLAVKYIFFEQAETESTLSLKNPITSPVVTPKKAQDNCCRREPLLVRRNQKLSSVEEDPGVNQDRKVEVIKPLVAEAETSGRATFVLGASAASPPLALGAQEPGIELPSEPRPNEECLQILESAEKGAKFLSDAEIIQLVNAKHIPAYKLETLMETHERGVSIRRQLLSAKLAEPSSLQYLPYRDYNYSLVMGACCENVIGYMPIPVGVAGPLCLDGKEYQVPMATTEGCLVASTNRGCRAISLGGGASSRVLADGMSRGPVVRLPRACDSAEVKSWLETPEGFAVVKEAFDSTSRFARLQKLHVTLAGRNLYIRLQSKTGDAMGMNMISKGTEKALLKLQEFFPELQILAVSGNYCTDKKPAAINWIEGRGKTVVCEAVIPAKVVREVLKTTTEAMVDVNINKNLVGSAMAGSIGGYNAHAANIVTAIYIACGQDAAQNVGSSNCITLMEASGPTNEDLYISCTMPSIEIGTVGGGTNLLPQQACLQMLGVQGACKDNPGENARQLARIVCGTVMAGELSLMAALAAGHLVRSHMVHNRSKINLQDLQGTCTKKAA
As to the kind of experiment: Binding affinity was determined against purified rat liver HMG-coA reductase enzyme.

The species entered for test [2] is Homo sapiens. In words: Ability to inhibit cholesterol biosynthesis from [14C]acetate in cultured human skin fibroblasts at the concentration of 1 uM. The class given is functional.
The species named for test [3] is Homo sapiens. In words: Ability to inhibit cholesterol biosynthesis from [14C]acetate in cultured human skin fibroblasts at the concentration of 10 uM. The test is classed as functional.
Test [4] is filed under the species Homo sapiens. As to the kind of experiment: Ability to inhibit cholesterol biosynthesis from [14C]acetate in cultured human skin fibroblasts at the concentration of 10 nM. The class given is functional.
The species named for test [5] is Homo sapiens. In words: Ability to inhibit cholesterol biosynthesis from [14C]acetate in cultured human skin fibroblasts at the concentration of 100 nM. The test is classed as functional.
The species entered for test [6] is Homo sapiens. As to the kind of experiment: Ability to inhibit cholesterol biosynthesis from [14C]acetate in cultured human skin fibroblasts at the concentration of 1 nM. The class given is functional.

The values below come from ChEMBL document CHEMBL1122966, “Compactin (ML-236B) and related compounds as potential cholesterol-lowering agents that inhibit HMG-CoA reductase” (J Med Chem, 1985).

Each structure is given as a SMILES string.

On to `CC[C@H](C)C(=O)O[C@H]1CCC=C2C=C[C@H](C)[C@H](CC[C@@H]3C[C@@H](O)CC(=O)O3)[C@H]21` [MEVASTATIN], for which the Ki in test [1] was ~1 nM. In test [2], this molecule gave an inhibition at 1 µM of 95%. The same molecule registered an inhibition at 10 µM in test [3] of 100%. The inhibition at 0.01 µM in test [4] is 80%. The inhibition at 0.1 µM in test [5] amounted to 90%. This molecule registered an inhibition at 0.001 µM in test [6] of 50%.

A word on the Ki: it is a dissociation constant, usually derived from enzyme kinetics or from competition with a known ligand. Low values mean a stronger hold on the target, high ones a looser hold on the target. For orientation: inhibition means how much of the control response was suppressed. Read a low inhibition as a weak effect.
